Reference: ChEMBL document CHEMBL1201862, “PubChem BioAssay data set” (2004)
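Where inhibition never reached the appropriate level, the endpoint shown equals the highest concentration tested. Otherwise, values were interpolated linearly from a five-concentration, 48-hour dose response in 96-well plates. GI50: concentration for 50% inhibition of growth.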 Activity calls are given as the source filed them. Rule as the data show it: active = GI50 up to about 1.1 µM and inactive = higher.

Columns and labels:
Experiment in all cases: NCI tumour cell line growth inhibition, 48 h
CAKI-1 = test system: CAKI-1
SNB-19 = test system: SNB-19
NCI-H522 = test system: NCI-H522
MDA-MB-231 = test system: MDA-MB-231
A498 = test system: A498
COLO 205 = test system: COLO 205
786-0 = test system: 786-0
SK-MEL-5 = test system: SK-MEL-5
SK-OV-3 = test system: SK-OV-3
IGROV-1 = test system: IGROV-1
NCI-H226 = test system: NCI-H226
HOP-92 = test system: HOP-92
HL-60 = test system: HL-60
MDA-MB-435 = test system: MDA-MB-435
OVCAR-4 = test system: OVCAR-4
M14 = test system: M14
SF-539 = test system: SF-539
EKVX = test system: EKVX
U-251 = test system: U-251
BT-549 = test system: BT-549

Measured: GI50

C[C@@H](Cl)[C@H]1CCCN(Cc2ccc(Br)cc2)C1
inactive: CAKI-1 > 12.5 µM | SNB-19 > 12.5 µM | NCI-H522 > 12.5 µM | MDA-MB-231 > 12.5 µM | A498 > 12.5 µM | COLO 205 > 12.5 µM | 786-0 > 12.5 µM | SK-MEL-5 > 12.5 µM | SK-OV-3 > 12.5 µM | IGROV-1 > 12.5 µM | NCI-H226 > 12.5 µM | HOP-92 > 12.5 µM | HL-60 > 12.5 µM | MDA-MB-435 > 12.5 µM | OVCAR-4 > 12.5 µM | M14 > 12.5 µM | SF-539 > 12.5 µM | EKVX > 12.5 µM | U-251 > 12.5 µM

O=[As](O)(O)c1cc(/N=N/c2ccc(-c3ccc(/N=N/c4cc([As](=O)(O)O)c(O)cc4O)cc3)cc2)c(O)cc1O
inactive: CAKI-1 > 79.6 µM | SNB-19 > 100 µM | NCI-H522 > 100 µM | A498 > 56 µM | COLO 205 > 100 µM | 786-0 > 100 µM | SK-MEL-5 > 88.1 µM | SK-OV-3 > 100 µM | IGROV-1 > 100 µM | NCI-H226 > 100 µM | HOP-92 > 100 µM | HL-60 > 48.8 µM | OVCAR-4 > 42.9 µM | M14 > 53 µM | SF-539 > 74.1 µM | EKVX > 100 µM | U-251 > 100 µM

Cc1cc(S(=O)(=O)Nc2nc(N)nc(N3N=CCC3C)n2)c(S)cc1Cl (stereo not drawn)
inactive: CAKI-1 > 10 µM | SNB-19 > 10 µM | NCI-H522 > 10 µM | A498 > 10 µM | BT-549 > 10 µM | COLO 205 > 10 µM | 786-0 > 10 µM | SK-MEL-5 > 10 µM | SK-OV-3 > 10 µM | IGROV-1 > 10 µM | NCI-H226 > 10 µM | HOP-92 > 10 µM | HL-60 > 10 µM | OVCAR-4 > 10 µM | M14 > 10 µM | SF-539 > 10 µM | EKVX > 10 µM | U-251 > 10 µM

CCOc1ccc(NC2=NC(=O)C(CC(=O)Nc3ccccc3[N+](=O)[O-])S2)cc1 (stereo not drawn)
inactive: CAKI-1 > 100 µM | SNB-19 > 100 µM | NCI-H522 > 100 µM | A498 > 100 µM | 786-0 > 100 µM | SK-MEL-5 > 100 µM | IGROV-1 > 100 µM | NCI-H226 > 100 µM | HOP-92 > 100 µM | HL-60 > 100 µM | OVCAR-4 > 100 µM | M14 > 100 µM | SF-539 > 100 µM | EKVX > 100 µM | U-251 > 100 µM

Nc1nc(N)c(-c2ccccc2)c(CCC(=O)Nc2ccc(Cl)cc2)n1
inactive: CAKI-1 > 100 µM | SNB-19 > 100 µM | NCI-H522 > 100 µM | A498 > 100 µM | COLO 205 > 100 µM | 786-0 > 100 µM | SK-MEL-5 > 100 µM | SK-OV-3 > 100 µM | IGROV-1 > 100 µM | NCI-H226 > 100 µM | HOP-92 > 100 µM | HL-60 > 100 µM | OVCAR-4 > 100 µM | M14 > 100 µM | SF-539 > 100 µM | EKVX > 100 µM | U-251 > 100 µM

COC1=CCC=C(C[C@@H]2NCCc3cc(OC)c(OC)cc32)C1
inactive: CAKI-1 > 100 µM | SNB-19 > 100 µM | NCI-H522 > 100 µM | A498 > 100 µM | COLO 205 > 100 µM | 786-0 > 100 µM | SK-MEL-5 > 100 µM | SK-OV-3 > 100 µM | IGROV-1 > 100 µM | NCI-H226 32.1 µM | HOP-92 41.5 µM | HL-60 > 100 µM | OVCAR-4 > 100 µM | M14 > 100 µM | SF-539 > 100 µM | EKVX > 100 µM | U-251 > 100 µM

Cc1cccc(NC(=O)C(=O)C(C(=O)c2ccc3ccccc3c2)C2OC(=O)c3ccccc32)c1C (stereo not drawn)
inactive: CAKI-1 11.9 µM | SNB-19 5.4 µM | NCI-H522 14.1 µM | A498 10.1 µM | COLO 205 11.5 µM | 786-0 6.15 µM | SK-MEL-5 12.4 µM | SK-OV-3 12.7 µM | IGROV-1 17.5 µM | NCI-H226 2.39 µM | HOP-92 11.8 µM | HL-60 11.4 µM | OVCAR-4 10.9 µM | M14 14.4 µM | SF-539 6.53 µM | EKVX 26.1 µM | U-251 5.21 µM

CC(C)[C@H](NC(=O)[C@@H](O)[C@H](N)Cc1ccccc1)C(=O)N[C@@H](Cc1ccccc1)C(=O)O
inactive: CAKI-1 > 100 µM | SNB-19 > 100 µM | NCI-H522 > 100 µM | MDA-MB-231 > 100 µM | A498 > 100 µM | COLO 205 > 100 µM | 786-0 > 100 µM | SK-MEL-5 > 100 µM | SK-OV-3 > 100 µM | IGROV-1 > 100 µM | NCI-H226 > 100 µM | HOP-92 > 100 µM | HL-60 > 100 µM | MDA-MB-435 > 100 µM | OVCAR-4 > 100 µM | M14 > 100 µM | EKVX > 100 µM | U-251 > 100 µM

CC(C)C(NC(=O)C(Cc1ccccc1)NC(=O)[C@H]1CCC[C@H]1NC(=O)C(N)Cc1ccc(O)cc1)C(N)=O (stereo partly drawn)
inactive: CAKI-1 > 100 µM | SNB-19 > 100 µM | NCI-H522 > 100 µM | MDA-MB-231 > 100 µM | A498 > 100 µM | COLO 205 > 100 µM | 786-0 > 100 µM | SK-MEL-5 17.8 µM | SK-OV-3 > 100 µM | IGROV-1 > 100 µM | NCI-H226 > 100 µM | HOP-92 > 100 µM | HL-60 > 100 µM | MDA-MB-435 > 100 µM | OVCAR-4 > 100 µM | M14 > 100 µM | SF-539 > 100 µM | EKVX > 100 µM | U-251 > 100 µM

Cc1cccc(Cl)c1NC(=O)c1cccc([N+](=O)[O-])c1O
inactive: CAKI-1 46.1 µM | SNB-19 38.5 µM | NCI-H522 20.4 µM | A498 33 µM | COLO 205 51.5 µM | 786-0 56 µM | SK-OV-3 43.2 µM | IGROV-1 34.5 µM | NCI-H226 22.2 µM | HOP-92 23 µM | HL-60 > 10 µM | OVCAR-4 24.5 µM | M14 43.8 µM | SF-539 26.8 µM | EKVX 39.6 µM | U-251 33.7 µM

c1cn[nH]c1 [PYRAZOLE]
inactive: SNB-19 > 10 µM | A498 > 10 µM | COLO 205 > 10 µM | 786-0 > 10 µM | SK-MEL-5 > 10 µM | SK-OV-3 > 10 µM | IGROV-1 > 10 µM | NCI-H226 > 10 µM | HOP-92 > 10 µM | HL-60 > 10 µM | MDA-MB-435 > 10 µM | OVCAR-4 > 10 µM | SF-539 > 10 µM | EKVX > 10 µM | U-251 > 10 µM
